The structures appear in SMILES notation. Several values for one entry are separate records, joined by “and”; a condition that tells them apart may be missing. Equal entries are not always repeated.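 Five compound concentrations were applied to cells in 96-well plates for 48 hours; endpoints were derived by simple linear interpolation of the resulting dose-response curve. Here, GI50 denotes the concentration required for 50% inhibition of growth. TGI denotes the concentration required for complete inhibition of growth.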 *1 amine or outer side, *2 acyl side, *3 side chain or, on linkers, in order; H or OH if unused. Where a SMILES comes first, the peptide text is derived from it. Bridges are numbered along the chain shown (N, C = ends). Roman numbers before positions name the chains, in order. [ ]: non-standard residue; d: D form. Actinocin(9to1) = Cc1c2oc3c(C)ccc(C(=O)[*:1])c3nc-2c(C(=O)[*:2])c(N)c1=O; NMeF = CN[CH](Cc1ccccc1)C(=O)O; Sar = CNCC(=O)O

Among the test systems are MDA-MB-435; MCF7 breast; OVCAR-4 ovarian; OVCAR-8 ovarian; HCT-116 colon; CAKI-1 renal; HCC-2998 colon; TK-10 renal; PC-3 prostate; NCI-H226 lung.
What all share (assay): NCI tumour cell line growth inhibition, 48 h

For the compound `O=C(CCc1ccc(O)cc1)N/N=C/c1cc(Br)ccc1O`, the GI50 in the test on MDA-MB-435 was 6310 nM; in the test on MCF7 breast, 3310 nM; with OVCAR-4 ovarian, 3.19 µM; in the test on OVCAR-8 ovarian it was 3700 nM; in the test on HCT-116 colon it was 4340 nM; in the test with CAKI-1 renal, 1.95 µM. Moreover, the values for the GI50 in the test with HCC-2998 colon, in the test with TK-10 renal and with PC-3 prostate were 7120 nM, 7.35 µM and 4140 nM, respectively. The TGI in the test with MDA-MB-435 was more than 100 µM; in the test on MCF7 breast, 90.2 µM; in the test on OVCAR-4 ovarian, 82 µM; in the test with OVCAR-8 ovarian, more than 100 µM; in the test with HCT-116 colon, more than 100 µM; with CAKI-1 renal, 8.99 µM. Further, the values for the TGI in the test with HCC-2998 colon, in the test with TK-10 renal and in the test on PC-3 prostate were 96.9 µM, more than 100 µM and more than 100 µM, respectively.

With `Oc1c(CN2CCN(c3ccccc3)CC2)cc(Br)c2cccnc12`, the TGI in the test with MDA-MB-435 is more than 100 µM; with MCF7 breast it was more than 100 µM; with OVCAR-4 ovarian it was more than 100 µM; in the test with OVCAR-8 ovarian, more than 100 µM; in the test with HCT-116 colon, more than 28.4 µM; with CAKI-1 renal, more than 100 µM. In addition, the results for the TGI in the test with TK-10 renal and with PC-3 prostate were more than 100 µM and 32.5 µM, respectively.

On to `Cc1ccc([C@]2(C)CC[C@H](C)/C2=C\Br)c(O)c1`, for which the GI50 is 1860 nM with MDA-MB-435; 4520 nM in the test on MCF7 breast; 3.42 µM in the test on OVCAR-4 ovarian; 5880 nM in the test with OVCAR-8 ovarian; 2880 nM in the test on HCT-116 colon; 4.32 µM in the test on CAKI-1 renal. Besides, the GI50 is 3.35 µM in the test on TK-10 renal and 4200 nM in the test with PC-3 prostate. The TGI in the test on MDA-MB-435 is 4.82 µM; with MCF7 breast, 17.9 µM; with OVCAR-4 ovarian, 14 µM; with OVCAR-8 ovarian, 21.9 µM; with HCT-116 colon, 9.33 µM; with CAKI-1 renal, 16.6 µM. Also, the figures for the TGI with TK-10 renal and in the test on PC-3 prostate were 14.1 µM and 17.7 µM, respectively.

Regarding `Oc1ccc(N=Nc2ccccn2)c(O)c1`, the GI50 in the test with MDA-MB-435 was 835 nM; with NCI-H226 lung, 3.4 µM; with MCF7 breast it was 677 nM; in the test with OVCAR-4 ovarian, 0.267 µM; with OVCAR-8 ovarian, 1630 nM; with HCT-116 colon it was 428 nM. Also, the GI50 is 490 nM with HCC-2998 colon, 0.661 µM in the test on TK-10 renal and 775 nM with PC-3 prostate. Moreover, the TGI in the test on MDA-MB-435 is more than 100 µM; in the test on NCI-H226 lung, 82.1 µM; with MCF7 breast, more than 100 µM; in the test on OVCAR-4 ovarian, 6.41 µM; in the test with OVCAR-8 ovarian, more than 100 µM; with HCT-116 colon, more than 100 µM. Further, the TGI with HCC-2998 colon, in the test on TK-10 renal and with PC-3 prostate was more than 100 µM in each case.

Turning to `Oc1ccc(Cc2cc(Cl)cc(Cl)c2O)cc1Cl`, the TGI with MDA-MB-435 is 27.1 µM; with NCI-H226 lung it was 40.2 µM; with MCF7 breast, 32.5 µM; in the test with OVCAR-4 ovarian it was 58.3 µM; in the test with OVCAR-8 ovarian, 36.3 µM; in the test with HCT-116 colon, 37.2 µM. For the same compound, the TGI in the test with CAKI-1 renal was determined as 51.5 µM; in the test with TK-10 renal it was 30.6 µM; with PC-3 prostate it was 33.1 µM.

Take `Cc1c(Cl)cccc1NC(=O)c1sc2nc3c(cc2c1N)CCCCC3`: the GI50 in the test with MDA-MB-435 is 104 nM; in the test with NCI-H226 lung, 4.68 µM; in the test with MCF7 breast, 105 nM; in the test on OVCAR-4 ovarian, 5.28 µM; in the test with OVCAR-8 ovarian, 825 nM; in the test on HCT-116 colon it was 196 nM. The values for the GI50 with HCC-2998 colon, in the test with TK-10 renal and with PC-3 prostate were 1760 nM, 6.66 µM and 307 nM, respectively. Moreover, the TGI with MDA-MB-435 is 0.317 µM; in the test on NCI-H226 lung, 34.1 µM; in the test on MCF7 breast it was more than 50 µM; in the test on OVCAR-4 ovarian it was more than 50 µM; in the test on OVCAR-8 ovarian it was more than 50 µM; in the test with HCT-116 colon, more than 50 µM. The figures for the TGI with HCC-2998 colon, in the test with TK-10 renal and in the test on PC-3 prostate were more than 50 µM, 45.6 µM and 17.9 µM, respectively.

Regarding `COc1cc(-c2csc(NC(=O)Nc3cc(Cl)cc(Cl)c3)n2)cc(OC)c1OC`, the GI50 in the test on MDA-MB-435 is 1900 nM; in the test on NCI-H226 lung it was 1.96 µM; with MCF7 breast, 2010 nM; with OVCAR-4 ovarian it was 1.78 µM; with OVCAR-8 ovarian, 1840 nM; in the test on HCT-116 colon, 1600 nM. Moreover, the GI50 in the test on HCC-2998 colon is 2390 nM; in the test with TK-10 renal it was 1.73 µM; in the test with PC-3 prostate, 1590 nM. In addition, the TGI in the test with MDA-MB-435 amounted to 3.96 µM; in the test with NCI-H226 lung, 4.38 µM; in the test with MCF7 breast, 5.42 µM; in the test with OVCAR-4 ovarian it was 3.36 µM; with OVCAR-8 ovarian, 3.87 µM; in the test with HCT-116 colon, 2.97 µM. The TGI in the test with HCC-2998 colon turned out to be 5.55 µM; in the test on TK-10 renal, 3.16 µM; in the test on PC-3 prostate, 3.61 µM.

With `Cc1c2oc3c(C)ccc(C(=O)NC4C(=O)NC(C(C)C)C(=O)N5CCCC5C(=O)N(C)CC(=O)N(C)C(Cc5ccccc5)C(=O)OC4C)c3nc-2c(C(=O)NC2C(=O)NC(C(C)C)C(=O)N3CCCC3C(=O)N(C)CC(=O)N(C)C(Cc3ccccc3)C(=O)OC2C)c(N)c1=O` (stereo not drawn) (I: TVP[Sar][NMeF] / II: TVP[Sar][NMeF]; ester I:1-I:C, II:1-II:C; linker I:N-II:N via Actinocin(9to1); configuration not given here), the TGI with MDA-MB-435 is < 0.01 µM and 0.095 µM; in the test on MCF7 breast it was 0.0136 µM; in the test with OVCAR-4 ovarian, < 0.0109 µM and 0.033 µM; with OVCAR-8 ovarian, 0.132 µM and 0.054 µM; with HCT-116 colon, 0.194 µM and > 1 µM; in the test on CAKI-1 renal it was 2.79 µM and > 0.223 µM. Moreover, the TGI with HCC-2998 colon was < 0.01 µM and 0.0486 µM; in the test with TK-10 renal, more than 1 µM; with PC-3 prostate it was 0.0325 µM and 0.142 µM. Moreover, the GI50 with MCF7 breast was 1.26 nM; with HCT-116 colon it was less than 10 nM; in the test with TK-10 renal, < 0.01 µM and 0.049 µM.

With `O=Nc1c(-c2c(O)[nH]c3ccc(Br)cc23)[nH]c2ccccc12`, the GI50 was 5470 nM with MDA-MB-435; 3.89 µM in the test on NCI-H226 lung; 2210 nM with MCF7 breast; 5.94 µM in the test on OVCAR-4 ovarian; 4290 nM with OVCAR-8 ovarian; 3.44 µM in the test on CAKI-1 renal. Also, the GI50 in the test with TK-10 renal was 3.77 µM; in the test on PC-3 prostate, 3380 nM. Besides, the TGI was more than 100 µM in the test with MDA-MB-435; 16.7 µM in the test with NCI-H226 lung; 8.48 µM in the test on MCF7 breast; 74.4 µM with OVCAR-4 ovarian; more than 100 µM with OVCAR-8 ovarian; more than 100 µM with CAKI-1 renal. Also, the values for the TGI with TK-10 renal and in the test on PC-3 prostate were more than 100 µM and 78.9 µM, respectively.

(Values after PubChem BioAssay (NCI).)
